Assay results: publication PMC6303390, “Nucleotide-dependent DNA gripping and an end-clamp mechanism regulate the bacteriophage T4 viral packaging motor” (Nature Communications, 2018)

Tests used:
[1] = target: T1, bacteriophage T4 packaging motor (gp17 on emptied T4 heads) (Tequatrovirus T4, UniProt P17312); experiment: optical tweezers single-DNA packaging assay; assay type: biochemical; conditions: ATP-driven DNA translocation; 50 mM Tris-HCl pH 7.5, 5 mM MgCl2, 80 mM NaCl
T1 construct: gene 17; N-terminally His-tagged recombinant gp17 from E. coli, assembled as pentamer on emptied heads (10am13am mutant phage) that carry the gp20 portal; with Portal protein
T1 sequence (P17312 whole entry): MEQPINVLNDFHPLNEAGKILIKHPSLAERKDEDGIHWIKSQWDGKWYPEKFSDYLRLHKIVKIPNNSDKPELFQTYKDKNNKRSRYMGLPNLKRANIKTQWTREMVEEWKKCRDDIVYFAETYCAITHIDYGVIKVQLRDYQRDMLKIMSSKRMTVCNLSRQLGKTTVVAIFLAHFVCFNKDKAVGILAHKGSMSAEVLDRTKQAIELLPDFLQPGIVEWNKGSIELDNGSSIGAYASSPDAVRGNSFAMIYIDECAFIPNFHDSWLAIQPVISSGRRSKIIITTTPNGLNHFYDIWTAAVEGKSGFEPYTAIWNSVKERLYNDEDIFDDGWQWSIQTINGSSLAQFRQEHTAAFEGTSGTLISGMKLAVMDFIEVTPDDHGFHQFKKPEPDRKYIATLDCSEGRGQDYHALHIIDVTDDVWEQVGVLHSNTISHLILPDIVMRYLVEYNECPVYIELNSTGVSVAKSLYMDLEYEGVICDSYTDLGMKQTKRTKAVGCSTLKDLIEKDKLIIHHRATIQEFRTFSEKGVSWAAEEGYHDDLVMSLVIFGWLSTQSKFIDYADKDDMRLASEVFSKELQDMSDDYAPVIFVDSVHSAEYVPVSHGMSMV

[2] = target: T1, bacteriophage T4 packaging motor (gp17 on emptied T4 heads); experiment: optical tweezers single-DNA grip/slip assay with solution exchange; assay type: binding; conditions: 0.5 mM ADP, 5 pN force; 50 mM Tris-HCl pH 7.5, 5 mM MgCl2, 80 mM NaCl

Structure (SMILES)	optical tweezers single-DNA packaging assay [1]	optical tweezers single-DNA grip/slip assay with solution exchange [2]
Nc1ncnc2c1ncn2[C@@H]1O[C@H](COP(=O)(O)OP(=O)(O)OP(=O)(O)O)[C@@H](O)[C@H]1O [ATP]	In each case the motor restarts when the complex is moved back into ATP	–
Nc1ncnc2c1ncn2[C@@H]1O[C@H](COP(=O)(O)OP(=O)(O)O)[C@@H](O)[C@H]1O [ADP]	–	when ADP is used highly intermittent gripping is observed
